Where a name gives a salt, the structure may show the parent alone.

The target of one experiment is T1, human B1R receptor (Homo sapiens, UniProt P46663).
T1 construct: host or cells: CHO K1 cells (Chinese hamster ovary), stably transfected
T1 sequence (P46663 1-353): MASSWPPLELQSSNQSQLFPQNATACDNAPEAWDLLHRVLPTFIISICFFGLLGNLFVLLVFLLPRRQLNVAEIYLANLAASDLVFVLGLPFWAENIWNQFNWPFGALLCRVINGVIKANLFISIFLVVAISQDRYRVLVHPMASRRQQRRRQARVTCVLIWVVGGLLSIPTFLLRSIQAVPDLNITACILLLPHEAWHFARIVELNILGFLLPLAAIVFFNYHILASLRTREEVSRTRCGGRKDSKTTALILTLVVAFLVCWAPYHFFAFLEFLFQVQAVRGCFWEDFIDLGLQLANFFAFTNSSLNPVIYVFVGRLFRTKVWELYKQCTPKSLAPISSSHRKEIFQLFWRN
Kind of experiment: Functional study on the bradykinin receptor 1 (B1R), FLIPR Ca2+ assay, hB1R cells. The experiment is classed as cell-based. To be noted: CHO-K1, test substance 10 μM, agonist Lys-Des-Arg9-bradykinin 0.5 nM, % inhibition compared with the maximum achievable inhibition, read-out: B1R Antagonism, human [10 μM] % Inhibition. In outline:
(§1)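 Readout: peak Fluo-4 Ca2+ fluorescence, FLIPR. Stable CHO K1 hB1R or rB1R cells; cpd 10 μM, 10 min preincubation, then agonist (hB1R: Lys-Des-Arg9-BK 0.5 nM; rB1R: Des-Arg9-BK 100 nM). Value = % inhibition relative to maximal achievable inhibition.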

The target in a further experiment is T2, B1R receptor of the rat (Rattus norvegicus, UniProt P97583).
T2 construct: host or cells: CHO K1 cells (Chinese hamster ovary), stably transfected
T2 sequence (P97583 1-337): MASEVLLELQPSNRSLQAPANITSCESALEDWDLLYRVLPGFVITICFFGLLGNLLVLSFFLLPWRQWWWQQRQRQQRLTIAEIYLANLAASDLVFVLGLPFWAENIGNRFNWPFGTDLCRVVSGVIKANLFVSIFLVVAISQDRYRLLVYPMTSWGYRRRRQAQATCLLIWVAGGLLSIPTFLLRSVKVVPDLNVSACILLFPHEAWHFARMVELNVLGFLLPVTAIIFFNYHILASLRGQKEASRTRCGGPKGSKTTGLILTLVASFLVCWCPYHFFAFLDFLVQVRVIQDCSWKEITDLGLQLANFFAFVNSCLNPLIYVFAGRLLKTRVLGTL
Kind of experiment: Functional study on the bradykinin receptor 1 (B1R), FLIPR Ca2+ assay, rB1R cells. The experiment is classed as cell-based. The conditions noted are these: CHO-K1, test substance 10 μM, agonist Des-Arg9-bradykinin 100 nM, % inhibition compared with the maximum achievable inhibition, read-out: B1R Antagonism, rat [10 μM] % Inhibition. In outline:
as §1

As to `COc1cc(C)c(S(=O)(=O)N2CCCC2COCC(=O)NCC(c2ccccc2Cl)N2CCCC2)c(C)c1` (centres unmarked) [Example 502, N-(2-(2-chlorophenyl)-2-(pyrrolidin-1-yl)ethyl)-2-((1-(4-methoxy-2,6-dimethylphenylsulfonyl)pyrrolidin-2-yl)methoxy)acetamide], the values for the inhibition at 10 µM at human B1R receptor and on B1R receptor of the rat were 96.7% and 103%, respectively.
As for `COc1cc(C)c(S(=O)(=O)N2CCCC2COCC(=O)N2CCN(C)CC2c2ccccc2)c(C)c1` (centres unmarked) [Example 445, 2-((1-(4-methoxy-2,6-dimethylphenylsulfonyl)pyrrolidin-2-yl)methoxy)-1-(4-methyl-2-phenylpiperazin-1-yl)ethanone], the results for the inhibition at 10 µM at human B1R receptor and at B1R receptor of the rat were 102% and 98.6%, respectively.
Consider `CC(C)c1cc(C(C)C)c(S(=O)(=O)N2CCCCC2COCC(=O)N2CCN(C3CCN(C)CC3)CC2)c(C(C)C)c1` (centres unmarked) [Example 119, 1-(4-(1-methylpiperidin-4-yl)piperazin-1-yl)-2-((1-(2,4,6-triisopropylphenylsulfonyl)piperidin-2-yl)methoxy)ethanone], for which the inhibition at 10 µM on human B1R receptor was 95.9%; at B1R receptor of the rat, 61.9%.
As to `COc1cc(C)c(S(=O)(=O)N2CCCCC2COCC(=O)NCc2ccc(CN3CCOCC3)cc2)c(C)c1` (centres unmarked) [Example 24, 2-[1-(4-methoxy-2,6-dimethyl-phenylsulfonyl)-piperidin-2-ylmethoxy]-N-(4-morpholin-4-ylmethyl-benzyl)-acetamide], the inhibition at 10 µM stood at 92.2% at human B1R receptor and 107% on B1R receptor of the rat.
On to `O=C(COCC1CCCN1S(=O)(=O)c1c(Cl)cc(Cl)cc1Cl)N1CCN(CCc2ccccc2)CC1` (centres unmarked) [Example 329, 1-(4-phenethylpiperazin-1-yl)-2-((1-(2,4,6-trichlorophenylsulfonyl)pyrrolidin-2-yl)methoxy)ethanone], for which the inhibition at 10 µM came to 105% on human B1R receptor and 98.2% at B1R receptor of the rat.
Taken in the same sequence, the figures for `O=C(COCC1CCCCN1S(=O)(=O)c1ccc(Cl)c(Cl)c1)N1CCC(N2CCCC2)CC1` (centres unmarked) [Example 26, 2-[1-(3,4-dichloro-phenylsulfonyl)-piperidin-2-ylmethoxy]-1-(4-pyrrolidin-1-yl-piperidin-1-yl)-ethanone] were 86.8% and 4.56%.
As to `COc1cc(C)c(S(=O)(=O)N2CCCC2COCC(=O)N2CCN(Cc3c(C)cc(C)cc3C)CC2)c(C)c1` (centres unmarked) [Example 351, 2-((1-(4-methoxy-2,6-dimethylphenylsulfonyl)pyrrolidin-2-yl)methoxy)-1-(4-(2,4,6-trimethylbenzyl)piperazin-1-yl)ethanone], the inhibition at 10 µM on human B1R receptor came to 44%; on B1R receptor of the rat it was 104%.
On to `COc1cc(C)c(S(=O)(=O)N2CCCCC2COCC(=O)N(CCCN(C)C)CCCN(C)C)c(C)c1` (centres unmarked) [Example 561, N,N-bis(3-(dimethylamino)propyl)-2-((1-(4-methoxy-2,6-dimethylphenylsulfonyl)piperidin-2-yl)methoxy)acetamide], for which the inhibition at 10 µM on human B1R receptor came out at 102%; at B1R receptor of the rat, 101%.
On to `COc1cc(C)c(S(=O)(=O)N2CCCCC2COCC(=O)N2CCNCC2)c(C)c1` (centres unmarked) [Example 102, 2-((1-(4-methoxy-2,6-dimethylphenylsulfonyl)piperidin-2-yl)methoxy)-1-(piperazin-1-yl)ethanone hydrochloride], for which the inhibition at 10 µM at human B1R receptor was found to be 104%; at B1R receptor of the rat it was 100%.
For `COc1cc(C)c(S(=O)(=O)N2CCCCC2COCC(=O)N2CCCCC2CCN2CCOCC2)c(C)c1` (centres unmarked) [Example 534, 2-((1-(4-methoxy-2,6-dimethylphenylsulfonyl)piperidin-2-yl)methoxy)-1-(2-(2-morpholinoethyl)piperidin-1-yl)ethanone], the inhibition at 10 µM on human B1R receptor was 104%; at B1R receptor of the rat it was 107%.
As to `COc1cc(C)c(S(=O)(=O)N2CCCCC2COCC(=O)N(Cc2ccc(N(C)C)cc2)C(C)C)c(C)c1` (centres unmarked) [Example 367, N-(4-(dimethylamino)benzyl)-N-isopropyl-2-((1-(4-methoxy-2,6-dimethylphenylsulfonyl)piperidin-2-yl)methoxy)acetamide], the inhibition at 10 µM was 20.1% at human B1R receptor and 103% on B1R receptor of the rat.
For the compound `COc1cc(C)c(S(=O)(=O)N2CCCCC2COCC(=O)N2CCN(Cc3nc4ccccc4[nH]3)CC2)c(C)c1` (centres unmarked) [Example 117, 1-(4-((1H-benzo[d]imidazol-2-yl)methyl)piperazin-1-yl)-2-((1-(4-methoxy-2,6-dimethylphenylsulfonyl)piperidin-2-yl)methoxy)ethanone], the inhibition at 10 µM on human B1R receptor and on B1R receptor of the rat was 101% throughout.
For `O=C(COCC1CCCCN1S(=O)(=O)c1ccc(Cl)c(Cl)c1)NCC1CCCN(Cc2ccccc2)C1` (centres unmarked) [Example 70, N-(1-benzyl-piperidin-3-ylmethyl)-2-[1-(3,4-dichloro-phenylsulfonyl)-piperidin-2-yl-methoxy]-acetamide], the inhibition at 10 µM at human B1R receptor was found to be 53.3%; on B1R receptor of the rat it was 42.2%.
Consider `COc1cc(C)c(S(=O)(=O)N2CCCCC2COCC(=O)N2CCN(Cc3c(C)cc(C)cc3C)CC2)c(C)c1` (centres unmarked) [Example 383, 2-((1-(4-methoxy-2,6-dimethylphenylsulfonyl)piperidin-2-yl)methoxy)-1-(4-(2,4,6-trimethylbenzyl)piperazin-1-yl)ethanone], for which the inhibition at 10 µM at human B1R receptor is 40.2%; on B1R receptor of the rat, 102%.
For `Cc1cc(C)c(S(=O)(=O)N2Cc3ccccc3CC2COCC(=O)N2CCC(N3CCN(C)CC3)CC2)c(C)c1` (centres unmarked) [Example 292, 2-((2-(mesitylsulfonyl)-1,2,3,4-tetrahydroisoquinolin-3-yl)methoxy)-1-(4-(4-methylpiperazin-1-yl)piperidin-1-yl)ethanone], the inhibition at 10 µM is 106% on human B1R receptor and 99.2% on B1R receptor of the rat.
For the compound `COc1ccc(-c2cc(NC(=O)COCC3CCCCN3S(=O)(=O)c3c(C)cc(OC)cc3C)n[nH]2)cc1` (centres unmarked) [Example 543, 2-((1-(4-methoxy-2,6-dimethylphenylsulfonyl)piperidin-2-yl)methoxy)-N-(5-(4-methoxyphenyl)-1H-pyrazol-3-yl)acetamide], the inhibition at 10 µM at human B1R receptor stood at 21.1%; at B1R receptor of the rat, 105%.
The like results for `COc1cc(C)c(S(=O)(=O)N2CCCCC2COCC(=O)Nc2nc3ccccc3n2C)c(C)c1` (centres unmarked) [Example 371, 2-((1-(4-methoxy-2,6-dimethylphenylsulfonyl)piperidin-2-yl)methoxy)-N-(1-methyl-1H-benzo[d]imidazol-2-yl)acetamide] were, in that order, 0.38% and 101%.
Turning to `O=C(COCC1CCCCN1S(=O)(=O)c1ccc(Cl)c(Cl)c1)N1CCN(CC2CCCCC2)CC1` (centres unmarked) [Example 68, 1-(4-cyclohexylmethyl-piperazin-1-yl)-2-[1-(3,4-dichloro-phenylsulfonyl)-piperidin-2-ylmethoxy]-ethanone], the inhibition at 10 µM stood at 54.1% on human B1R receptor and 0% at B1R receptor of the rat.
In the case of `COc1cc(C)c(S(=O)(=O)N2CCCC2COCC(=O)Nc2cccc(CN3CCCCC3)c2)c(C)c1` (centres unmarked) [Example 471, 2-((1-(4-methoxy-2,6-dimethylphenylsulfonyl)pyrrolidin-2-yl)methoxy)-N-(3-(piperidin-1-ylmethyl)phenyl)acetamide], the results for the inhibition at 10 µM at human B1R receptor and at B1R receptor of the rat were 103% and 98.8%, respectively.

The term inhibition denotes the change of the read-out against control, counted positive when it falls.

The values are drawn from patent US8435978B2, “Substituted sulfonamide compounds” (Gruenenthal GmbH, priority 2006, dated 2013).
